What all share (experiment): inhibition of tumour cell growth, NCI panel, 48 h
Experiment [1] relates to OVCAR-4 ovarian.
In experiment [2] the test system is SK-MEL-5 melanoma.
Experiment [3] relates to HOP-92 NSCLC.
In experiment [4] the test system is SK-OV-3 ovarian.
Experiment [5] has as its system NCI-H522 lung.
For experiment [6], the system named is RXF 393 renal.
Experiment [7] relates to SF-295 CNS.
Experiment [8] concerns OVCAR-8 ovarian.
For experiment [9], the system named is SK-MEL-28 melanoma.
In experiment [10] the test system is HCT-15 colon.

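Method: 48-hour compound exposure of cells in 96-well plates, five concentrations, linear interpolation of endpoints. GI50 is the concentration that inhibits growth by half. Definition used: TGI = concentration required for complete inhibition of growth.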

For the compound `CS(=O)(=O)OCCCOS(C)(=O)=O`, the TGI in experiment [1], in experiment [2], in [3], in experiment [4], in experiment [5] and in experiment [6] was more than 100 µM in each case. In addition, the TGI in experiment [7], in [8], in [9] and in experiment [10] was more than 100 µM throughout.

Turning to `O=C(N/N=C\c1ccccc1)Nc1cccc2ccccc12`, the TGI is more than 100 µM in [1]; 24.4 µM in [2]; more than 100 µM in [3]; more than 100 µM in [5]; more than 100 µM in [6]; 77.1 µM in [7]. In addition, the TGI in experiment [8] was more than 100 µM; in [9] it was 51.5 µM; in experiment [10] it was more than 100 µM.

Consider `COC(=O)c1ccccc1C1CN=NC12Cc1cccc(C)c1C2=O` (centres undefined), for which the TGI in experiment [1], in [2], in experiment [3], in experiment [4], in experiment [5] and in [6] was more than 100 µM each time. Besides, the TGI in [7], in experiment [8], in [9] and in experiment [10] was more than 100 µM each time.

`CSc1nc2c(=O)n(-c3ccccc3)c(=S)n(-c3ccccc3)c2s1`: the TGI is more than 100 µM in [1]; more than 100 µM in [2]; 80.5 µM in experiment [3]; more than 100 µM in experiment [4]; more than 100 µM in experiment [5]; 94.4 µM in experiment [6]. For the same compound, the TGI in [7], in [8], in experiment [9] and in experiment [10] was more than 100 µM each time.

`Nc1ccc(Oc2ccc(C34CC5CC6C3CC3CC4C(C5)C6(c4ccc(Oc5ccc(N)c(O)c5)cc4)C3)cc2)cc1O`: the TGI in [1] amounted to 22.2 µM; in experiment [2] it was 9.24 µM; in experiment [3], 8.41 µM; in experiment [4] it was 21.7 µM; in experiment [5], 5.73 µM; in [6], 27 µM. For the same compound, the TGI in experiment [7] was 15.3 µM; in experiment [8], more than 46.7 µM; in experiment [9], 23.6 µM; in [10], 25 µM.

Take `COc1cc(C2c3cc4c(cc3[C@@H](Nc3cccc([N+](=O)[O-])c3)C3COC(=O)[C@H]23)OCO4)cc(OC)c1O` (some centres undefined): the TGI in [1] is more than 100 µM; in experiment [2], 7.87 µM; in experiment [3] it was 27.7 µM; in experiment [4], 9.67 µM; in experiment [5], 11.7 µM; in [6], 7.41 µM. In addition, the TGI was 4.94 µM in experiment [7], more than 32.9 µM in experiment [8], more than 100 µM in experiment [9] and 4.12 µM in experiment [10].

As for `CC12CCC(C(Nc3ccccn3)C1=O)C2(C)C` (centres undefined), the TGI in experiment [1], in [2], in experiment [3], in [4], in experiment [5] and in [6] was more than 100 µM throughout. Further, the TGI in experiment [7], in [8], in [9] and in experiment [10] was more than 100 µM each time.

For the compound `Oc1cccc(-c2cn3cc(C(F)(F)F)ccc3n2)c1`, the TGI is more than 100 µM in [1]; 56.5 µM in [2]; more than 100 µM in [3]; more than 100 µM in [4]; 35.4 µM in [5]; 50.2 µM in experiment [6]. Further, the TGI in [7] was 94 µM; in experiment [8] it was more than 100 µM; in experiment [9], more than 100 µM; in experiment [10], more than 100 µM.

Consider `COc1cc2c(cc1OC)-c1cc3cc(OC)c(OC)cc3c(=O)n1CC2`, for which the TGI is more than 100 µM in experiment [1]; 25.9 µM in experiment [2]; 10.5 µM in experiment [3]; more than 100 µM in experiment [4]; more than 25.7 µM in experiment [5]; more than 69.8 µM in [6]. The TGI in experiment [7], in experiment [8], in experiment [9] and in experiment [10] was more than 100 µM each time.

With `Oc1ccc(C#CCOc2ccccc2)cc1CNCCN(Cc1ccccn1)Cc1ccccn1`, the GI50 in experiment [1] is 1.29 µM; in experiment [2], 1.49 µM; in experiment [3] it was 1.57 µM; in experiment [4] it was 0.944 µM; in [5] it was 2.07 µM; in experiment [6], 1.49 µM. For the same compound, the GI50 in experiment [7] is 0.552 µM; in experiment [8], 1 µM; in experiment [9] it was 2.04 µM; in [10], 1.13 µM. Further, the TGI came out at 3.71 µM in experiment [1]; 2.84 µM in experiment [2]; 4.1 µM in [3]; 2.27 µM in experiment [4]; 6.67 µM in experiment [5]; 2.96 µM in experiment [6]. Moreover, the TGI came to 1.89 µM in experiment [7], 6.55 µM in [8], 5.91 µM in [9] and 3.55 µM in [10].

Take `CC(C)(C)[C@H]1CCC2(OCCO2)[C@](O)(CCCO)C1`: the TGI in experiment [1], in [2], in experiment [3], in experiment [4], in experiment [5] and in experiment [6] was more than 100 µM each time. Besides, the TGI in experiment [7], in experiment [8], in experiment [9] and in [10] was more than 100 µM throughout.

For `C[C@]1(O)O[C@@H]2OCC[C@@H]2C2=C1C(=O)c1ccccc1C2=O`, the TGI in [1] was found to be 28.4 µM; in [2] it was 24.8 µM; in experiment [3], 31 µM; in [4], 45.6 µM; in [5] it was 31.6 µM; in experiment [6] it was 27.2 µM. Moreover, the TGI in [7] was determined as 35.8 µM; in experiment [8] it was 29.4 µM; in experiment [9], 82.5 µM; in experiment [10], 39.1 µM.

Consider `N#Cc1nc(CCC(c2nc(C#N)c(N)o2)N2C(=O)c3ccccc3C2=O)oc1N` (centres undefined), for which the TGI in experiment [1], in experiment [2], in experiment [3], in [4], in experiment [5] and in [6] was more than 100 µM in each case. Further, the TGI in experiment [7], in experiment [9] and in [10] was more than 100 µM throughout.

Consider `Cc1ccc(C(=O)Nc2ccc(S(=O)(=O)O)c3cc(S(=O)(=O)O)cc(S(=O)(=O)O)c23)cc1NC(=O)c1cccc(NC(=O)Nc2cccc(C(=O)Nc3cc(C(=O)Nc4ccc(S(=O)(=O)O)c5cc(S(=O)(=O)O)cc(S(=O)(=O)O)c45)ccc3C)c2)c1` (tested in a mixture with another compound), for which the TGI in experiment [1], in experiment [2], in experiment [3], in experiment [4], in [5] and in experiment [6] was more than 50 µM in each case. In addition, the TGI in [7], in [8], in [9] and in [10] was more than 50 µM throughout.

`O=C1ON=C2C3CC4CC12CC1(C3)C(=O)ON=C41`: the TGI in [1], in experiment [2], in [3], in [5], in [6] and in [7] was more than 100 µM throughout. Further, the TGI in experiment [8] and in [9] was more than 100 µM throughout.

For `C#CCn1c(=O)c(Cl)cn(/C(=C/C(=O)OCC)C(=O)OCC)c1=O`, the TGI in [1] is 38.8 µM; in experiment [2] it was 30.6 µM; in experiment [3], 22 µM; in experiment [4], more than 61.6 µM; in [5] it was 12.6 µM; in [6], 4.18 µM. Also, the TGI in [7] is more than 66.7 µM; in [8], 12.9 µM; in experiment [9] it was 38.9 µM; in [10], 25.2 µM.

Regarding `O=[N+]([O-])c1c2nc3n(c2cc2c1nc1n2CCC1)CCC3`, the TGI in [1], in [2], in experiment [3], in experiment [4], in experiment [5] and in experiment [6] was more than 100 µM throughout. For the same compound, the TGI in experiment [7], in experiment [8], in experiment [9] and in experiment [10] was more than 100 µM each time.

For `COc1ccc2cc(C(=O)NCCCNC(=O)c3ccc4cc(OC)ccc4c3)ccc2c1`, the TGI in [1] was more than 100 µM; in [2], more than 100 µM; in [3], 45.2 µM; in experiment [4], more than 65 µM; in experiment [5] it was more than 100 µM; in experiment [6], 39.6 µM. Also, the TGI is more than 83.8 µM in experiment [7], more than 66.3 µM in experiment [8], more than 100 µM in [9] and more than 100 µM in experiment [10].

As for `CCCCCCCCCCCCCCCCCCOCC(COP(=O)([O-])OCC[N+](C)(C)C)OC` (centres undefined), the TGI in experiment [1] is more than 52.6 µM; in experiment [2], 62.9 µM; in experiment [3], 25.4 µM; in [4], 46 µM; in experiment [5], 32.7 µM; in [6], 42.2 µM. Moreover, the TGI came out at 29.7 µM in experiment [7], 57.7 µM in experiment [8], 57.9 µM in experiment [9] and 11.3 µM in experiment [10].

Take `COC(=O)[C@H](Cc1ccccc1)NP(=O)(O)OCC1C=CC(n2cc(C)c(=O)[nH]c2=O)O1` (some centres undefined): the TGI in experiment [1], in experiment [2], in experiment [3], in experiment [4], in experiment [5] and in [6] was more than 100 µM each time. The TGI in experiment [7], in experiment [8] and in experiment [10] was more than 100 µM throughout.

Consider `CC(Cc1ccccc1)NC1=NCCO1` (centres undefined), for which the TGI was more than 100 µM in [1]; more than 100 µM in experiment [2]; 69.1 µM in experiment [3]; more than 100 µM in experiment [4]; more than 100 µM in experiment [5]; more than 100 µM in experiment [6]. Also, the TGI in experiment [7], in experiment [8] and in experiment [10] was more than 100 µM throughout.

In the case of `c1ccc(C(CCN2CC3CCC(CC3)C2)c2ccccc2)cc1`, the TGI is more than 100 µM in experiment [1]; 30.1 µM in [2]; 64.4 µM in experiment [3]; 31.9 µM in experiment [5]; 37.9 µM in [6]; 55 µM in [7]. Also, the figures for the TGI in experiment [8], in [9] and in [10] were 98.3 µM, more than 100 µM and 45.4 µM, respectively.

As to `Cc1ccc(S(=O)(=O)NC(=O)NC(Cc2ccc(O)c(O)c2)C(=O)O)cc1` (centres undefined), the TGI in experiment [1], in experiment [2], in experiment [3], in [5], in [6] and in experiment [7] was more than 100 µM throughout. Further, the TGI in experiment [8], in [9] and in [10] was more than 100 µM in each case.

Consider `Cn1c(=O)c2c(nc(Nc3ccc(Cl)cc3)n3c(=O)n(-c4ccccc4)c(=O)n23)n(C)c1=O`, for which the TGI in [1], in [2], in [3], in experiment [5], in [6] and in [7] was more than 100 µM in each case. For the same compound, the TGI in experiment [8], in experiment [9] and in [10] was more than 100 µM throughout.

Consider `O=C(OCCC12CC3CC(CC(C3)C1)C2)c1ccc(NCc2cc(O)ccc2O)cc1`, for which the TGI came out at 3.17 µM in experiment [1]; 2.51 µM in [2]; 16.8 µM in experiment [3]; 13.1 µM in experiment [4]; 0.35 µM in experiment [5]; 4.9 µM in [6]. For the same compound, the TGI worked out at 5.25 µM in [7], 2.24 µM in experiment [9] and 3.53 µM in experiment [10].

As to `C=C(C)[C@@H]1CCC2=C[C@H](CC(C)=CC3=CC(C)=C(O3)[C@@H]1OC)OC2=O`, the TGI is more than 100 µM in experiment [1]; more than 100 µM in [2]; more than 100 µM in [3]; more than 100 µM in [5]; 56.9 µM in [6]; 70.5 µM in experiment [7]. The TGI in experiment [8], in experiment [9] and in experiment [10] was more than 100 µM each time.

Source of the values: PubChem BioAssay (NCI).
